Measured values from PubChem BioAssay AID248 (DTP/NCI, 2004).
Values joined by “and” are separate entries in the source; they are usually repeats but may differ in a detail not shown here. Equal values may be shown once. Inconclusive results and toxic doses are left out.

System: L1210 leukemia ip in BDF1 mice, survival T/C
Assay: NCI In Vivo Anticancer Drug Screen. Data for tumor model L1210 Leukemia (intraperitoneal) in B6D2F1 (BDF1) mice
Settings: endpoint: mean survival time, higher = longer survival
How it was run: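 Transplantable tumor model; survival measured in treated vs vehicle control mice. Value = treated/control.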

[1] = dose: 100.0 mg/kg/injection, schedule: Q01DX001 (ip), vehicle: carboxymethylcellulose (CMC)
[2] = dose: 200.0 mg/kg/injection, schedule: Q01DX001 (ip), vehicle: carboxymethylcellulose (CMC)
[3] = dose: 100.0 mg/kg/injection, schedule: Q04DX002 (ip), vehicle: saline with Tween-80
[4] = dose: 200.0 mg/kg/injection, schedule: Q04DX002 (ip), vehicle: saline with Tween-80
[5] = dose: 400.0 mg/kg/injection, schedule: Q04DX002 (ip), vehicle: saline with Tween-80
[6] = dose: 100.0 mg/kg/injection, schedule: Q04DX003 (ip), vehicle: Klucel (hydroxypropylcellulose) (HPC)
[7] = dose: 200.0 mg/kg/injection, schedule: Q04DX003 (ip), vehicle: Klucel (hydroxypropylcellulose) (HPC)
[8] = dose: 400.0 mg/kg/injection, schedule: Q04DX003 (ip), vehicle: Klucel (hydroxypropylcellulose) (HPC)
[9] = dose: 100.0 mg/kg/injection, schedule: Q01DX001 (ip), vehicle: saline with Tween-80
[10] = dose: 200.0 mg/kg/injection, schedule: Q01DX001 (ip), vehicle: saline with Tween-80
[11] = dose: 400.0 mg/kg/injection, schedule: Q01DX001 (ip), vehicle: saline with Tween-80
[12] = dose: 100.0 mg/kg/injection, schedule: Q01DX001 (ip), vehicle: saline
[13] = dose: 200.0 mg/kg/injection, schedule: Q01DX001 (ip), vehicle: saline
[14] = dose: 400.0 mg/kg/injection, schedule: Q01DX001 (ip), vehicle: saline
[15] = dose: 25.0 mg/kg/injection, schedule: Q01DX001 (ip), vehicle: other
[16] = dose: 100.0 mg/kg/injection, schedule: Q04DX002 (ip), vehicle: saline
[17] = dose: 200.0 mg/kg/injection, schedule: Q04DX002 (ip), vehicle: saline
[18] = dose: 400.0 mg/kg/injection, schedule: Q04DX002 (ip), vehicle: saline

For `CONP(=O)(Oc1ccccc1)Oc1ccccc1`, the T/C [1] was 95 % of control, the T/C [2] was 95 % of control and the T/C (dose: 400.0 mg/kg/injection, schedule: Q01DX001 (ip), vehicle: carboxymethylcellulose (CMC)) was 97 % of control.

For `OC(c1ccccc1)(c1ccc(-c2ccccc2)cc1)c1cccc2ccccc12` (centres undefined), the T/C (dose: 75.0 mg/kg/injection, schedule: Q01DX001 (ip), vehicle: saline) was 92 % of control, the T/C (dose: 150.0 mg/kg/injection, schedule: Q01DX001 (ip), vehicle: saline) was 92 % of control and the T/C (dose: 300.0 mg/kg/injection, schedule: Q01DX001 (ip), vehicle: saline) was 91 % of control.

`C=CCSc1nc2c(=O)[nH]c(N)nc2n1C1OC(CO)C(O)C1O` (centres undefined) was tested, and the T/C (dose: 100.0 mg/kg/injection, schedule: Q01DX005 (ip), vehicle: saline) was 100 % of control and the T/C (dose: 200.0 mg/kg/injection, schedule: Q01DX005 (ip), vehicle: saline) was 103 % of control.

`Cl[Si](c1ccccc1)(c1ccccc1)c1ccc([Si](Cl)(c2ccccc2)c2ccccc2)cc1` was tested, and the T/C [3] was 87 % of control, the T/C [4] was 92 % of control and the T/C [5] was 96 % of control.

With `CNC(=O)Nc1ccc(Nc2ccccc2)cc1` the T/C (dose: 100.0 mg/kg/injection, schedule: Q04DX002 (ip), vehicle: Klucel (hydroxypropylcellulose) (HPC)) was 105 % of control, the T/C (dose: 200.0 mg/kg/injection, schedule: Q04DX002 (ip), vehicle: Klucel (hydroxypropylcellulose) (HPC)) was 97 % of control and the T/C (dose: 400.0 mg/kg/injection, schedule: Q04DX002 (ip), vehicle: Klucel (hydroxypropylcellulose) (HPC)) was 91 % of control.

`CN(C)C(=S)Oc1ccc(C(F)(F)F)cc1` was tested, and the T/C [6] was 95 % of control, the T/C [7] was 93 % of control and the T/C [8] was 101 % of control.

For `COC(=O)c1cc(=O)n(C)c2ccc(OC)cc12`, the T/C [9] was 101 % of control, the T/C [10] was 103 % of control and the T/C [11] was 109 % of control.

In the case of `Cn1c(=O)c2c(nc(OCC3CC4CCC3C4)n2C)n(C)c1=O` (centres undefined), the T/C [12] is reported as 96 % of control, the T/C [13] is reported as 108 % of control and the T/C [14] is reported as 108 % of control.

For `COc1ccccc1/C=C/c1cnccn1`, the T/C (dose: 100.0 mg/kg/injection, schedule: Q01DX009 (ip), vehicle: Klucel (hydroxypropylcellulose) (HPC)) was 98 % of control, the T/C [6] was 96 % of control and the T/C (dose: 200.0 mg/kg/injection, schedule: Q01DX009 (ip), vehicle: Klucel (hydroxypropylcellulose) (HPC)) was 101 % of control. For the same molecule, the T/C [7] was 102 % of control, the T/C (dose: 400.0 mg/kg/injection, schedule: Q01DX009 (ip), vehicle: Klucel (hydroxypropylcellulose) (HPC)) was 93 % of control and the T/C [8] was 104 % of control.

`O=[N+]([O-])c1cc(O)cc(F)c1` was tested, and the T/C [1] was 100 % of control.

In the case of `CC1(C)CN1c1nc(N2CC2(C)C)nc(N2CC2(C)C)n1`, the T/C (dose: 44.0 mg/kg/injection, schedule: Q01DX001 (ip), vehicle: carboxymethylcellulose (CMC)) is reported as 106 % of control and 108 % of control, the T/C (dose: 66.0 mg/kg/injection, schedule: Q01DX001 (ip), vehicle: carboxymethylcellulose (CMC)) is reported as 106 % of control and 108 % of control and the T/C [1] is reported as 113 % of control and 120 % of control. For the same molecule, the T/C (dose: 150.0 mg/kg/injection, schedule: Q01DX001 (ip), vehicle: carboxymethylcellulose (CMC)) was 116 % of control and 118 % of control and the T/C [2] was 118 % of control.

For `COc1cc2c(cc1OC)C1C(O)C(OC)C=C3CCN(C2)C31` (centres undefined), the T/C [12] was 100 % of control, the T/C [13] was 97 % of control and the T/C [14] was 103 % of control.

For `[Cu+2].[NH-]C1C(Cl)CCC2C(Cl)CC[N-]C12` (centres undefined), the T/C (dose: 6.0 mg/kg/injection, schedule: Q04DX003 (ip), vehicle: Klucel (hydroxypropylcellulose) (HPC)) was 91 % of control, the T/C (dose: 12.0 mg/kg/injection, schedule: Q01DX001 (ip), vehicle: other) was 108 % of control and the T/C (dose: 12.0 mg/kg/injection, schedule: Q04DX003 (ip), vehicle: Klucel (hydroxypropylcellulose) (HPC)) was 102 % of control. For the same molecule, the T/C [15] was 108 % of control.

In the case of `O=NN(CCF)C(=O)NC1C2CC3CC(C2)CC1C3` (centres undefined), the T/C (dose: 12.5 mg/kg/injection, schedule: Q01DX001 (ip), vehicle: other) is reported as 114 % of control, the T/C [15] is reported as 123 % of control and the T/C (dose: 50.0 mg/kg/injection, schedule: Q01DX001 (ip), vehicle: other) is reported as 167 % of control.

`CN1CNC(C=O)(CCc2ccc(Cl)cc2)C1` (centres undefined) was tested, and the T/C (dose: 200.0 mg/kg/injection, schedule: Q01DX001 (ip), vehicle: other) was 87 % of control and the T/C (dose: 400.0 mg/kg/injection, schedule: Q01DX001 (ip), vehicle: other) was 98 % of control.

In the case of `NC(N)=N/N=C/C(O)CO` (centres undefined), the T/C (dose: 15.0 mg/kg/injection, schedule: Q01DX Z (ip), vehicle: methylcellulose (MC)) is reported as 104 % of control, the T/C (dose: 30.0 mg/kg/injection, schedule: Q01DX Z (ip), vehicle: methylcellulose (MC)) is reported as 113 % of control and the T/C (dose: 60.0 mg/kg/injection, schedule: Q01DX Z (oral), vehicle: methylcellulose (MC)) is reported as 117 % of control. For the same molecule, the T/C (dose: 240.0 mg/kg/injection, schedule: Q01DX Z (oral), vehicle: methylcellulose (MC)) was 93 % of control.

`CC(=O)NCC(O)C(O)C(O)C(O)CO` (centres undefined) was tested, and the T/C [16] was 98 % of control, the T/C [17] was 92 % of control and the T/C [18] was 103 % of control.

In the case of `O=C(Nc1cc([N+](=O)[O-])ccc1F)Oc1ccc2ccccc2c1`, the T/C (dose: 100.0 mg/kg/injection, schedule: Q01DX009 (ip), vehicle: saline) is reported as 111 % of control, the T/C (dose: 200.0 mg/kg/injection, schedule: Q01DX009 (ip), vehicle: saline) is reported as 95 % of control and the T/C (dose: 400.0 mg/kg/injection, schedule: Q01DX009 (ip), vehicle: saline) is reported as 106 % of control.

`O=C(O)CCc1ccncc1` was tested, and the T/C [16] was 100 % of control, the T/C [17] was 122 % of control and the T/C [18] was 103 % of control.

For `CC(=N/N=C(N)N)/C(C)=N/N=C(N)N`, the T/C (dose: 15.0 mg/kg/injection, schedule: Q01DX Z (ip), vehicle: saline) was 98 % of control, the T/C (dose: 30.0 mg/kg/injection, schedule: Q01DX Z (ip), vehicle: saline) was 97 % of control and the T/C (dose: 60.0 mg/kg/injection, schedule: Q01DX005 (oral), vehicle: saline) was 96 % of control. For the same molecule, the T/C (dose: 60.0 mg/kg/injection, schedule: Q01DX Z (ip), vehicle: saline) was 108 % of control and the T/C (dose: 120.0 mg/kg/injection, schedule: Q01DX Z (ip), vehicle: saline) was 98 % of control.

With `COc1cccc(C(O)c2cnc(C)n2Cc2ccccc2)c1` (centres undefined) the T/C [9] was 94 % of control, the T/C (dose: 100.0 mg/kg/injection, schedule: Q01DX009 (ip), vehicle: saline with Tween-80) was 93 % of control and 107 % of control and the T/C [3] was 97 % of control and 100 % of control. The T/C (dose: 100.0 mg/kg/injection, schedule: Q04DX003 (ip), vehicle: saline with Tween-80) was 101 % of control, the T/C [10] was 100 % of control and the T/C (dose: 200.0 mg/kg/injection, schedule: Q01DX009 (ip), vehicle: saline with Tween-80) was 98 % of control and 99 % of control. For the same molecule, the T/C [4] was 102 % of control and 107 % of control, the T/C (dose: 200.0 mg/kg/injection, schedule: Q04DX003 (ip), vehicle: saline with Tween-80) was 93 % of control and the T/C [11] was 103 % of control. The T/C (dose: 400.0 mg/kg/injection, schedule: Q01DX009 (ip), vehicle: saline with Tween-80) was 98 % of control and 108 % of control, the T/C [5] was 105 % of control and 88 % of control and the T/C (dose: 400.0 mg/kg/injection, schedule: Q04DX003 (ip), vehicle: saline with Tween-80) was 98 % of control.

In the case of `CC(=O)Nc1ncn[nH]1`, the T/C (dose: 50.0 mg/kg/injection, schedule: Q01DX001 (ip), vehicle: saline) is reported as 98 % of control, the T/C [12] is reported as 98 % of control and the T/C [13] is reported as 101 % of control. For the same molecule, the T/C [14] was 101 % of control.

In the case of `CC12CCC(=O)C=C1CCC1C2CCC2(C)C(OC(=O)CN3CC3)CCC12` (centres undefined), the T/C (dose: 100.0 mg/kg/injection, schedule: Q01DX001 (sc), vehicle: steriod suspending solution) is reported as 101 % of control, the T/C (dose: 200.0 mg/kg/injection, schedule: Q01DX001 (sc), vehicle: steriod suspending solution) is reported as 97 % of control and the T/C (dose: 400.0 mg/kg/injection, schedule: Q01DX001 (sc), vehicle: steriod suspending solution) is reported as 103 % of control.
